Source: US12414960B2, “Analogues of oleuropein and oleacein and uses thereof” (Attica Sciences Ltd., priority 2020, dated 2025)

Assays:
[1] = system: HeLa cervical cancer cells; assay: XTT cell growth assay, HeLa; format: cell-based, human; details: 24 h, NS = not statistically significant; for inhibition at 50 µM: Homo sapiens, HeLa, read-out: Effectiveness to suppress HeLa cell growth (cell growth inhibition)
Summary of the method: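 HeLa cells in DMEM were plated and incubated 24 h, then exposed 24 h to compound at 5, 10 or 50 μM in serum-free DMEM. After 4 h with XTT reagent, formazan absorbance was read at 450 nm (630 nm reference); serum-free medium served as negative control.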

[2] = ABTS radical cation scavenging assay; format: biochemical; details: NS = not statistically significant
Description: The method of estimating antioxidant capacity, based on the ability to interact with the ABTS.+ radical cation was first performed by Miller et al. in 1993 (Miller, Nicholas et al., Clinical Science, 1993, 84: 407-412, “A novel method for measuring the antioxidant capacity and its application to monitoring the antioxidant status in premature neonates”). The mechanism of interaction of the antioxidant agents to be examined with the ABTS.+ radical is similar to that of the DPPH. radical, which can be inactivated either by the addition of an electron or by the addition of a hydrogen atom. However, unlike the DPPH. radical, which is a stable radical from the beginning, the ABTS.+ radical must be produced by the oxidation of ABTS. Thus, in order to estimate the antioxidant capacity of a substance, the formation of the ABTS.+ radical must first precede and the addition of the substance to be examined must follow. The addition of the antioxidant agent is performed after the production of the root ABTS.+ to avoid the interaction of the antioxidant agents with the oxidizing agents used for the oxidation of ABTS.
The oxidation of ABTS takes place either through chemical reactions with various reagents or through the action of enzymes such as peroxidases. The ABTS.+ radical from the moment it is formed is stable, has a green color and absorbs at 730 nm. When a substance with antioxidant activity is added to the solution, then the ABTS.+ radical is reduced by the addition of a hydrogen (or electron) atom, resulting in reduced visual absorption.
To assess the antioxidant capacity of the samples, the oxidation of ABTS was performed enzymatically through the action of horseradish peroxidase (HRP), in the presence of H2O2 (FIG. 3)
The anti-oxidant capacity of the GS compounds was evaluated by performing the ABTS assay as previously described (Kouka, Paraskevi et al., Oxid Med Cell Longev. 2019, Article ID 1870965). Briefly, in a total reaction volume of 1 mL in distilled water (dH2O), ABTS.^+ (1 mM), H2O2 (30 μM), and horseradish peroxidase (HRP) (6 μM) in 50 mM phosphate-buffered saline were added. The solution was incubated for 45 min at room temperature (RT) in the dark. Finally, 10 μL of the tested GS compound at various concentrations was added, and the absorbance was monitored on a Hitachi U-1900 radio beam spectrophotometer (serial no. 2023-029; Hitachi Ltd.) at 730 nm. In each experiment, a blank without the HRP was used, while the ABTS.^+ radical solution without the extract was used as the control. The RSC percentage of the tested extracts was calculated using the following equation: RSC (%)=[(ODcontrol−ODcompound)/ODcontrol]×100, where ODcontrol and OD sample are the optical density (OD) values of the control and the test sample, respectively.

| ABTS Radical Cation Scavenging Assay IC50 [2] [μg extract/mL] | SMILES | inhibition at 50 µM [1] [%] | Effectiveness to suppress HeLa cell growth (cell growth inhibition) ([1]; 50 uM) |
| --- | --- | --- | --- |
|  | C/C=C(/C=O)[C@@H](CC=O)CC(=O)SCCc1ccccc1 [GS27, S-phenethyl (3S,4E)-4-formyl-3-(2-oxoethyl)hex-4-enethioate] | 39 |  |
| 8.2 | C/C=C1/[C@H](OC2OC(CO)C(O)C(O)C2O)OC=C(C(=O)O)[C@H]1CC(=O)OCCc1ccc(O)c(O)c1 (stereo in doubt) [GS6, (2S,4S,E)-4-(2-(3,4-dihydroxyphenethoxy)-2-oxoethyl)-3-ethylidene-2{[(2R,3S,4R,5R,6S)-3,4,5-trihydroxy-6-(hydroxymethyl)tetrahydro-2H-pyran-2-yl]oxy}-3,4dihydro-2H-pyran-5-carboxylic acid] | 48 |  |
| 8 | C/C=C(/C=O)[C@@H](CC=O)CC(=O)OCCc1ccc(O)c(O)c1 [GS17, (3S,4E)-4-formyl-3-(2-oxoethyl)-4-hexenoic acid 2-(3,4-dihydroxyphenyl)ethyl ester, reference compound] |  |  |
|  | C/C=C(/C=O)[C@@H](CC=O)CC(=O)OCCCSC [GS28, (3S,4E)-4-formyl-3-(2-oxoethyl)-4-hexenoic acid 3-(methylthio)propyl ester] | 81 | best efficacy |
|  | C/C=C(/C=O)[C@@H](CC=O)CC(=O)OCCOc1ccccc1 [GS24, (3S,4E)-4-formyl-3-(2-oxoethyl)-4-hexenoic acid 2-phenoxyethyl ester] | 66.6 |  |
| 38 | C/C=C(/C=O)[C@@H](CC=O)CC(=O)OCCc1ccc(O)cc1 [GS19, (3S,4E)-4-formyl-3-(2-oxoethyl)-4-hexenoic acid 2-(4-hydroxyphenyl)ethyl ester, reference compound] | 79.1 |  |
| 20.9 | C/C=C1/[C@H](O[C@@H]2O[C@H](CO)[C@@H](O)[C@H](O)[C@H]2O)OC=C(C(=O)OC)[C@H]1CC(=O)OCCc1ccc(O)c(O)c1 [GS1, oleuropein] |  |  |
